Article PMC5749684, “Tetrahydrocarbazoles are a novel class of potent P-type ATPase inhibitors with antifungal activity” (PLoS ONE, 2018)
≈ marks a conversion by molar mass, not a printed value.

What was measured:
Candida krusei ATCC 6258 = assay: Fungal growth inhibition, C. krusei; type: cell-based; conditions: Pichia kudriavzevii, ATCC6258; MIC defined as 50% growth inhibition, 24 h, n = 3–6
Text: (§1) Fungal isolates were purchased from American Type Culture Collection, except for C. glabrata strain Cg003, which was kindly provided by Julius Subik, Comenius University in Bratislava, Slovak Republic. Cg003 is a clinical isolate, characterized to be resistant to fluconazole and itraconazole due to overexpression of the multidrug resistance efflux pumps Cdr1p and Cdr2p. Saccharomyces cerevisiae (ATCC 9763), Candida albicans (ATCC 90028), Candida albicans (SC5314), Candida glabrata (ATCC 90030), Candida glabrata (Cg003) and Candida krusei (ATCC 6258) were grown in Sabouraud broth (40 g/L D-glucose, 10 g/L peptone, pH 5.6) or YPD (10 g/L yeast extract, 20 g/L Bacto-peptone, 20 g/L glucose) medium to mid log phase, aliquoted into 20% (v/v) glycerol and cryopreserved as stocks at -80°C. For each growth assay, cells from these stocks were diluted in sterile water to OD600 = 0.025, which corresponds to a final starting inoculum of 0.5–2.5 x 10^5 CFU/mL. Growth assays were carried out by pipetting 3 μL compound dissolved in DMSO, 100 μL cell suspension and 97 μL 2 x RPMI media (20.8 g/L RPMI-1640 (Sigma-Aldrich catalog number R6504) 330 mM MOPS, 36 g/L glucose) into a microtiter plate and incubating for 24 h at 34°C, followed by OD measurement at 490 nm. The minimum inhibitory concentration (MIC) was defined as 50% growth inhibition of the microorganism as this measurement best represented the antifungal activity of the compounds. Standard errors were typically below 5%.

[1] = tested on: C. albicans (SC5314) cells; assay: Time-kill assay; type: cell-based, Candida albicans; conditions: AMB 0.54 μM, VRC 2.8 μM, 6 and 8 20 μM
Experimental: C. albicans (SC5314) cells (1 x 10^5 CFU/mL) were incubated in 10 mL RPMI-1640 media at 30°C with gentle agitation (150 rpm) in the presence of amphotericin B (0.5 μM), voriconazole (2.8 μM) or tetrahydrocarbazole compound (20 μM). At the indicated time points (0, 3, 6, and 24 h), a 100 μL aliquot was removed, serially diluted (10 fold) in saline (0.9% NaCl), and 30 μL aliquots were spread on YPD agar. CFU were counted after incubation at 30°C for 48 h. C. albicans cells treated with DMSO (1%, v/v) served as a control. 50 CFU/mL was selected as the lower limit of quantitation.

C. albicans cells = assay: Post-antifungal effect determination; type: cell-based, Candida albicans; conditions: 1 h exposure of C. albicans; AMB 0.54 μM, VRC 2.8 μM, 6 and 8 20 μM
Experimental: The post-antifungal effect (PAFE) of antifungal drugs on C. albicans was determined as described by others, with modifications. Briefly, 2 × 10^6 CFU/mL C. albicans cells were incubated in 1 mL RPMI-1640 media for 1 h at 30°C with gentle agitation in the presence of amphotericin B (0.54 μM), voriconazole (2.8 μM) or tetrahydrocarbazole compound (20 μM). Cells were subsequently washed in RPMI media 3 times by centrifugation (3 minutes, 5,000 x g) and finally re-suspended in 1 mL fresh RPMI medium and incubated at 30°C for 24 h. At various time intervals, a 100 μL aliquot was removed, serially diluted (10-fold) in saline (0.9% NaCl), and 30 μL aliquots were spread on YPD agar. The agar plates were incubated at 30°C for 48 h and the number of CFU/mL of culture was determined. C. albicans cells treated with DMSO (1%, v/v) served as a control. The number of CFU/mL obtained at specified time intervals was plotted against time (h) following compound removal. An increase in the CFU/mL of culture signifies growth and multiplication of yeast cells. The duration required for the antifungal drug-treated cells to recover from the inhibitory effect of the drug as indicated by an increase in CFU/mL of culture is defined as the PAFE.

[2] = tested on: Saccharomyces cerevisiae ATCC 9763; assay: Fungal growth inhibition, S. cerevisiae ATCC 9763; type: cell-based; conditions: ATCC9763, MIC defined as 50% growth inhibition, 24 h, n = 3–6
Text: as §1

Candida albicans SC5314 = assay: Fungal growth inhibition, C. albicans SC5314; type: cell-based; conditions: MIC defined as 50% growth inhibition, 24 h, n = 3–6
Text: as §1

[3] = tested on: Candida glabrata ATCC 90030; assay: Fungal growth inhibition, C. glabrata ATCC 90030; type: cell-based; conditions: Nakaseomyces glabratus, ATCC90030; MIC defined as 50% growth inhibition, 24 h, n = 3–6
Text: as §1

Candida glabrata Cg003 = assay: microbe, parasite or virus in culture; type: cell-based; conditions: Nakaseomyces glabratus, CG003, 24 h, read-out: Growth inhibition MIC Candida glabrata Cg003
Experimental: as §1, with “Cg003 is a clinical isolate, characterized to be resistant to fluconazole and itraconazole due to overexpression of the multidrug resistance efflux pumps Cdr1p and Cdr2p.” left out, “nm.” for “nm. The minimum inhibitory concentration (MIC) was defined as 50% growth inhibition of the microorganism as this measurement best represented the antifungal activity of the compounds. Standard errors were typically below 5%.”

HepG2 cells = assay: Hep G2 viability assay (XTT); type: cell-based, human; conditions: HepG2 proliferation, 72 h, XTT
Experimental: In each well of a 96 well tissue culture plate (Greiner, catalog number GR-655180) 10,000 human hepatocyte HepG2 cells (Sigma-Aldrich, catalog number 85011430) were plated in 200 μL growth media (EMEM (Sigma-Aldrich, catalog number M2279), 2 mM L-Glutamine (Biological Industries, catalog number 03-020-1B), 1% non-essential amino acids (Biosera, catalog number XC-E1154/100), 10% fetal bovine serum (Biological Industries, catalog number BI-04-007-1A)), and incubated overnight at 37°C and 5% CO2. The following day, fresh growth media plus 2 μL compound in DMSO was added. The plate was incubated for a further 72 h at 37°C and 5% CO2. The media was replaced with 100 μL freshly prepared 0.5 mg/mL XTT sodium salt solution (Sigma-Aldrich, catalog number X4251) in RPMI-1640 (Sigma-Aldrich, catalog number R7509) with 3.83 μg/mL phenazine methosulfate (Sigma-Aldrich, catalog number P9625) and incubated 2–3 h at 37°C and 5% CO2. The color reaction was measured on a Victor X5 plate reader (Perkin-Elmer) at OD450, and the half maximal effective concentration (EC50) was calculated indicating the potency of tetrahydrocarbazole derivatives to inhibit HepG2 cell growth. Tamoxifen (Sigma-Aldrich, catalog number 85256) was used as a positive control compound while DMSO served as a negative control.

Candida albicans = assay: Fungal growth inhibition, C. albicans (library hits, Tables A and B); type: cell-based; conditions: ATCC90028, read-out: Growth inhibition MIC Candida albicans
Experimental: (§2) The compound libraries were purchased from Enamine Ltd, Ukraine and Chembridge Corp, USA. Library screening was performed in 96 well plates format and each compound was screened in the ATP hydrolysis assay at a final concentration of 20 μM. DMSO was used to determine the maximal ATPase activity and a blank with ATP in absence of Pma1 protein was used to determine the level of spontaneous ATP hydrolysis and used to determine background level. The percentage of compound inhibition was evaluated by subtracting the blank from each data point and normalizing to maximal ATP hydrolysis activity.
as §1, with “Cg003 is a clinical isolate, characterized to be resistant to fluconazole and itraconazole due to overexpression of the multidrug resistance efflux pumps Cdr1p and Cdr2p.” left out, “nm.” for “nm. The minimum inhibitory concentration (MIC) was defined as 50% growth inhibition of the microorganism as this measurement best represented the antifungal activity of the compounds. Standard errors were typically below 5%.”

[4] = biological target: T1, Saccharomyces cerevisiae Pma1 (Saccharomyces cerevisiae, UniProt P05030); assay: ATP hydrolysis inhibition, S. cerevisiae Pma1; type: biochemical; conditions: ATP hydrolysis IC50 Saccharomyces cerevisiae Pma1, library hit compounds, n = 3
T1 construct: containing the full-length cDNA of the S. cerevisiae plasma membrane H^+-ATPase isoform PMA1; made in house; host or cells: Saccharomyces cerevisiae RS72
Experimental: as §2, with “activity. […] Pma1 inhibitory hit compounds (IC50 <20 μM) with antifungal activity on both S. cerevisiae and C. albicans (MIC <100 μM) were re-purchased and re-evaluated to confirm the potency and identity of the compound.” for “activity.”
Plasma membranes containing Pma1 were isolated from Saccharomyces cerevisiae RS72 cells containing the full-length cDNA of the S. cerevisiae plasma membrane H^+-ATPase isoform PMA1 under control of the PMA1 promoter as described.
ATPase activity was determined by measuring the amount of liberated phosphate from ATP hydrolysis. The ATPase assay was performed in 96 well plates in a final reaction volume of 60 μL. 0.1–0.2 μg/well of DOC extracted SERCA membrane or the Na^+,K^+-ATPase was used, while 1–2.5 μg/well was used of the Pma1 membrane preparation. Reactions, including protein membrane preparation and various concentrations of exogenously added compounds, were conducted in the following buffers; Pma1 buffer: 17.5 mM MOPS-NaOH pH 7, 7 mM MgSO4, 44 mM KNO3 (vacuolar ATPase inhibitor), 22 mM NaN3 (mitochondrial ATPase inhibitor), 0.22 mM Na2MoO4 (acid phosphatase inhibitor); SERCA buffer: 9 mM MOPS-NaOH pH 7, 2.7 mM MgCl2, 0.1 mM CaCl2 and 72 mM KCl. Na^+,K^+-ATPase buffer: 30 mM MOPS-NaOH pH 7, 40 mM NaCl, 4 mM MgCl2 and 20 mM KCl. Reactions were initiated by the addition of Na-ATP to a final concentration of 2.5 mM (Pma1 and Na^+,K^+-ATPase) or 5 mM (SERCA), followed by 30 minutes incubation at 30°C. […] Absorption was measured at 860 nm after additional 30 minutes incubation at RT.

Saccharomyces cerevisiae = assay: Fungal growth inhibition, S. cerevisiae (library hits, Table A); type: cell-based; conditions: MIC defined as 50% growth inhibition, n = 3, baker's yeast
Experimental: as §2
as §1, with “Cg003 is a clinical isolate, characterized to be resistant to fluconazole and itraconazole due to overexpression of the multidrug resistance efflux pumps Cdr1p and Cdr2p.” left out, “nm.” for “nm. The minimum inhibitory concentration (MIC) was defined as 50% growth inhibition of the microorganism as this measurement best represented the antifungal activity of the compounds. Standard errors were typically below 5%.”

[5] = tested on: HEK293 cells expressing the familial Alzheimer’s disease (FAD)-linked presenilin 1 mutation; design: method as in PMID 25514752; conditions: HEK293 cells expressing FAD-linked presenilin 1 mutation; cited from earlier work

T1 sequence (P05030 whole entry, canonical isoform): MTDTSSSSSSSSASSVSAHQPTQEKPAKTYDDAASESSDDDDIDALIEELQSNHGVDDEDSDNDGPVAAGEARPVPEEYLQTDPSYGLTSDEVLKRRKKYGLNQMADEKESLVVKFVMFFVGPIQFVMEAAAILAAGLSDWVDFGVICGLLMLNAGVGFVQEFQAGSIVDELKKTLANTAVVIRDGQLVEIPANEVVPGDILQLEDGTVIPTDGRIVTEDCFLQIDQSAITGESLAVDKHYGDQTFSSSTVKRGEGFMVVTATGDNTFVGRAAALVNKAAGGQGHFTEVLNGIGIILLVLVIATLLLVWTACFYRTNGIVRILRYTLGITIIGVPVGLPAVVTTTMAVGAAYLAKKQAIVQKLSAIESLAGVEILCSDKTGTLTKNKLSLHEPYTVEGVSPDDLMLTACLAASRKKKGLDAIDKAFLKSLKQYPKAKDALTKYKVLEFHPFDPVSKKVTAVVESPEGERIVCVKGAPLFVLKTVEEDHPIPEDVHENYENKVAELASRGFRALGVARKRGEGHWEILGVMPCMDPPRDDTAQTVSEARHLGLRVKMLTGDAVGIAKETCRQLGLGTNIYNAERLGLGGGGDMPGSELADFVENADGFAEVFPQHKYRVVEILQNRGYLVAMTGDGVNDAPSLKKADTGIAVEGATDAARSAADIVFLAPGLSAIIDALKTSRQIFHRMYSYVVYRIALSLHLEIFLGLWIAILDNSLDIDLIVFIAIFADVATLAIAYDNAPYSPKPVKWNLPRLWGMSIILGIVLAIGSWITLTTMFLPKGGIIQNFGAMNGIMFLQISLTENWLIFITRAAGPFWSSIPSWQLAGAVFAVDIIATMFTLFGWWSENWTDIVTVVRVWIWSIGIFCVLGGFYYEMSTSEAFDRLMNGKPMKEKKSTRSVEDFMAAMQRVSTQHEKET

SMILES	MIC (Candida krusei ATCC 6258) [µM]	Fungicidal or fungistatic activity in time-kill (in words) [1]	Post-antifungal effect (PAFE) (C. albicans cells)	MIC [2] [µM]	MIC (Candida albicans SC5314) [µM]	MIC [3] [µM]	MIC (Candida glabrata Cg003) [µM]	EC50 (HepG2 cells) [µM]	EC50 (HepG2 cells; Homo sapiens, HepG2, 72 h) [µM]	MIC (Candida albicans) [µM]	IC50 [4] [µM]	MIC (Saccharomyces cerevisiae) [µM]	Effect on enhanced calcium release from the endoplasmic reticulum (in words) [5]	EC50 (HepG2 cells; Homo sapiens) [µM]
C[C@@H]1[C@H](O)[C@@H](C)/C=C/C=C/C=C/C=C/C=C/C=C/C=C/[C@H](O[C@@H]2O[C@H](C)[C@@H](O)[C@H](N)[C@@H]2O)C[C@@H]2O[C@](O)(C[C@@H](O)C[C@@H](O)[C@H](O)CC[C@@H](O)C[C@@H](O)CC(=O)O[C@H]1C)C[C@H](O)[C@H]2C(=O)O [AMB, amphotericin B, reference compound]	0.44 ± 0.34 (≈ 0.407 µg/mL)	fungicidal after 3 h exposure	7 h	0.02 ± 0.01 (≈ 0.0185 µg/mL)	0.1 ± 0.04 (≈ 0.0924 µg/mL)	0.1 ± 0.04 (≈ 0.0924 µg/mL)	0.18 ± 0.08 (≈ 0.166 µg/mL)	0.69 ± 0.01	< 1	–	–	–	–	–
Brc1ccc2[nH]c3c(c2c1)CCCC3NCCc1ccccc1 (stereo not shown) [Compound 1]	–	–	–	–	–	–	–	–	–	20 (≈ 7.39 µg/mL)	18.2 ± 4.7	10 (≈ 3.69 µg/mL)	reduce the enhanced calcium release	–
Brc1ccc2[nH]c3c(c2c1)CCCC3NCc1ccccc1 (stereo not shown) [Compound 2]	–	–	–	–	–	–	–	–	–	10 (≈ 3.55 µg/mL)	12.9 ± 3.2	12 (≈ 4.26 µg/mL)	reduce the enhanced calcium release	–
Cc1ccc2[nH]c3c(c2c1)CCCC3NCc1ccc(Cl)cc1 (stereo not shown) [Compound 3]	–	–	–	–	–	–	–	–	–	5 (≈ 1.62 µg/mL)	14.8 ± 3.5	12 (≈ 3.9 µg/mL)	–	–
OC(Cn1cncn1)(Cn1cncn1)c1ccc(F)cc1F [FLC, fluconazole, reference compound]	67.2 ± 27 (≈ 20.6 µg/mL)	–	–	20.7 ± 8.68 (≈ 6.33 µg/mL)	0.75 ± 0.48 (≈ 0.23 µg/mL)	26.1 (≈ 8 µg/mL)	> 208	–	–	–	–	–	–	> 50
C[C@@H](c1ncncc1F)[C@](O)(Cn1cncn1)c1ccc(F)cc1F [VRC, voriconazole, reference compound]	1.02 ± 0.7 (≈ 0.356 µg/mL)	fungistatic activity after both 3 and 24 h of incubation	no significant delay in growth	0.27 ± 0.19 (≈ 0.0943 µg/mL)	0.03 ± 0.02 (≈ 0.0105 µg/mL)	0.61 ± 0.28 (≈ 0.213 µg/mL)	6.11 ± 2.64 (≈ 2.13 µg/mL)	–	–	–	–	–	–	> 50
